# Experimental data reported in patent US9833492B2, “Combinations of a caspase inhibitor and an antiviral agent” (INSTITUT NATIONAL DE LA SANTE ET DE LA RECHERCHE MEDICALE …, priority 2007, dated 2017).
# Entries after “also recorded” stand apart in the source; their conditions may differ. Read-outs that look alike come from different tables or passages of the source. Where a SMILES comes first, the peptide text is derived from it. [ ]: non-standard residue; d: D form. The star is where a group is joined. Sta = CC(C)C[C@H](N)[C@@H](O)CC(=O)O; Isovaleryl = CC(C)CC(=O)*; Cbz = O=C(OCc1ccccc1)*; CH2F = FC*
# Legend:
# [1] = system: Cytochrome c, Smac/Diablo and Endonuclease G in primary CD4+ T cells infected with HIV-Lai; test: immunoblot of release of apoptogenic mitochondrial factors after subcellular fractionation; type: cell-based, human; settings: 10 μM, day 5 after infection
# Method: FIG. 3: Immunoblot (Western blot) showing the effect of Q-VD-OPh on mitochondrial damage resulting from viral replication. Primary CD4+ T cells were infected with HIV-Lai and stimulated with a ConA/IL-2 cocktail and then treated or not treated with 10 μM of Q-VD-OPh (QVD) and/or 10 μM of pepstatin A (PA) immediately after stimulation and then 36 hours (day 3) and 96 hours (day 4) after infection. On the 5th day post-infection, the cells were fractionated into two parts: the membrane fraction and the cytosol fraction. The relocalization of the apoptogenic factors Cytochrome c (Cyt c), Smac/Diablo and Endonuclease G (EndoG) was then evaluated by immunotransfer (Western blot). The proteins Cytochrome c, Smac/Diablo and EndoG were detected using the antibodies indicated above. The proteins Cox IV and actin detected by means of the anti-subunit IV antibodies (clone 1068 Molecular Probe) and anti-actin antibodies (SIGMA), respectively, were used as the control for the fractionation procedure and as the control for the protein load of the gel, respectively. […]
# The cytosol and mitochondrial fractions were obtained by the subcellular fractionation technique based on selective permeabilization by digitonin according to Foghsgaard et al. {Foghsgaard, 2001}. […] The protein concentration of the cytosol and mitochondrial fractions was determined by the bicinchoninic acid (BCA) method (Bio-Rad). […]
# apoptosis = settings: Caserta et al., 2003; cited from earlier work
# HIV-1 virus = settings: cited from earlier work
# cells infected by HIV = cells infected by HIV (Petit et al., 2002), cited from earlier work
# viral strain HIV-Lai = test: Example 2: internal p24 viral protein by flow cytometry with different caspase inhibitors; type: cell-based, HIV-1; settings: 10 μM
# Method: (§1) FIG. 11. Analysis by flow cytometry of the internal viral protein p24 (A) and of the fall in the mitochondrial transmembrane potential (% Δφm low; B) on the 5th (d5) and 7th (d7) day post-infection in primary CD4+ T cells infected by the strain HIV-Lai, after stimulation by Concanavalin A and IL-2 and in the presence or absence of 10 μM of different caspase inhibitors.
# (§2) In order to evaluate the change in the transmembrane potential of the inner mitochondrial membrane, the cells were labelled with a fluorescent probe DIOC6 (Molecular Probes, Invitrogen), at a concentration of 40 nM, and incubated for 15 minutes at 37° C. Viral replication was evaluated by internal labelling of the p24 viral protein using an anti-p24-PE antibody (KC-57, Coulter Corp, Beckman).
# (§3) Primary CD4 T cells were infected by the viral strain HIV-Lai and then stimulated by ConA/IL-2 in the presence or absence of Q-VD-OPH, Q-DEVD-OPH (casp-3 inhibitor), Q-LEDH-OPH (caspase-9 inhibitor) and Q-IETD-OPH (caspase-8 inhibitor) at 10 μM for each of the inhibitors. On days 5 and 7 post-infection, the internal p24 viral protein is measured by flow cytometry after fixation and permeabilization of the CD4 T cells. […] Death was evaluated by analysis of the fall in the mitochondrial transmembrane potential (% Δφm low) using the probe DIOC6 by flow cytometry (FIG. 11B). […]
# [2] = system: Primary CD4 T cells infected by the viral strain HIV-Lai; test: Example 2: death by fall in mitochondrial transmembrane potential in infected primary CD4 T cells; type: cell-based, human; settings: 10 μM
# Method: as §1, §2, §3
# HIV viral proteins = test: Example 2: immunoblot of HIV viral proteins in infected primary CD4 T cells; type: cell-based, HIV-1; settings: versus control cultures
# Method: FIG. 12. Analysis by immunoblot of the quantity of HIV viral proteins produced from extracts of primary CD4 T cells infected by the strain HIV-Lai in the presence or absence of different caspase inhibitors.
# 20 μg extracts of total lysate prepared with 1% NP40 were boiled for 5 minutes in Laemmli buffer containing 2% SDS and 10% 2-β-mercaptoethanol, then deposited on 10-20% polyacrylamide gradient gels (Invitrogen). After transfer of the proteins, the immunoblots were incubated with the following primary antibodies: anticaspase-3, anticaspase-8 and anticaspase-9 (Cell Signaling), anti-PARP (Pharmingen) and anti-Tubulin (Santa-Cruz).
# Primary CD4 T cells were infected by the viral strain HIV-Lai and then stimulated by ConA/IL-2 in the presence or absence of Q-VD-OPH, Q-DEVD-OPH (casp-3 inhibitor), Q-LEDH-OPH (caspase-9 inhibitor) and Q-IETD-OPH (caspase-8 inhibitor) at 10 μM for each of the inhibitors. On days 5 and 7 post-infection, the internal p24 viral protein is measured by flow cytometry after fixation and permeabilization of the CD4 T cells. […] Death was evaluated by analysis of the fall in the mitochondrial transmembrane potential (% Δφm low) using the probe DIOC6 by flow cytometry (FIG. 11B). […] Extracts of primary CD4 T cells infected in the presence or absence of the different caspase inhibitors as well as QVD-OPH were analyzed by immunoblot for the HIV viral proteins (FIG. 12).
# [3] = system: primary strains of the HIV-1 virus; test: replication of primary HIV-1 strains in CD4+ T lymphocytes (p24); type: cell-based; settings: 1 μM
# Method: FIG. 7: Graphic representation showing the effect of Q-VD-OPh on primary HIV-1 strains. In all cases (A, B and C), the CD4+ T lymphocytes were stimulated with concanavalin A and IL2 (stimulation being carried out before or during administration of Q-VD-OPh), […], immediately after infection and then 36 hours (d3) and 96 hours (d4) post-infection. A. Analysis by flow cytometry of viral replication in CD4+ T lymphocytes infected with the HIV-1Lai virus or with the serum of a chronic HIV+ patient (strain with X4/R5 dual tropism) and then cultivated in the absence or presence (+Q-VD) of Q-VD-OPh. The percentage of CD4+ cells infected by HIV was determined after intracellular labelling of the p24 viral antigen on the 5th day post-infection in the case of the HIV-Lai virus and on the 6th day post-infection in the case of the serum. […] B. Quantification of viral replication (on the left) and of cell death by measurement of mitochondrial depolarization (on the right) in CD4+ T lymphocytes infected with the serum of the chronic HIV+ patient. […]
# The CD4^+ cells were incubated for 2 hours at 37° C. in the presence of 10 ng/ml of HIV-1 virus of strain Lai or 50 ng/ml of primary strains of the HIV-1 virus. […] The HIV p24 antigen, the control for the viral load, was measured in the cell culture supernatants by an ELISA test (Abbott). […]
# [4] = system: lymphocytes stimulated by 1 μg/ml of anti-CD-3; test: lymphocyte proliferation test with CFSE; type: cell-based, human
# Method: FIG. 13. Analysis by flow cytometry of lymphocyte proliferation after 4 and 5 days' stimulation by 1 μg/ml of anti-CD-3, in the presence or absence of HIV antiproteases or of QVD-OPH.
# The PBMCs are incubated in the presence of 1 μM of CFSE for 7 minutes at 37° C. The cells are taken up at 1·10^6/ml and then placed in culture and activated by an anti-CD3 at 1 μg/ml (Immunotech).
# A lymphocyte proliferation study was conducted with the fluorescent probe CFSE, which allows cell division to be monitored.
# [5] = system: cells stimulated by anti-CD3; type: cell-based; settings: human, 1 day, 50 μM
# Method: FIG. 14. Analysis of the fall in the mitochondrial transmembrane potential (% Δφm low) by flow cytometry starting from cells stimulated by 1 μg/ml of anti-CD-3 in the presence or absence of different HIV antiproteases and of QVD-OPH.
# as §2
# The cell toxicity was evaluated by analysis of the fall in the mitochondrial transmembrane potential (% Δφm low) using the probe DIOC6, by flow cytometry. The cells stimulated by anti-CD3 were analyzed in the same way on the day following activation.
compound,measurement,setting,value
CC(C)CC(=O)N[C@H](C(=O)N[C@H](C(=O)N[C@@H](CC(C)C)[C@@H](O)CC(=O)N[C@@H](C)C(=O)N[C@@H](CC(C)C)[C@@H](O)CC(=O)O)C(C)C)C(C)C [pepstatin A] (Isovaleryl-VV[Sta]A[Sta]-OH),"mitochondrial damage: apoptogenic factors Cytochrome C, Smac/Diablo and EndoG in the cytosol fraction",[1],no effect
"CC(C)[C@H](NC(=O)OCc1ccccc1)C(=O)N[C@@H](C)C(=O)N[C@@H](CC(=O)O)C(=O)CF [z-VAD-fmk, N-benzyloxycarbonyl-Val-Ala-Asp-fluoromethyl ketone] (Cbz-Val-Ala-Asp-CH2F)",inhibition of apoptosis,apoptosis,inhibits apoptosis in a dose-dependent manner
same,effect on viral replication,"HIV-1 virus; T-leukaemia cells (CEM) or PBMC exposed to HIV-1 (Chinnaiyan et al., 1997)",increasing viral replication
same,endogenous viral replication,"HIV-1 virus; activated PBMCs from HIV-1-positive asymptomatic patients (Chinnaiyan et al., 1997)",stimulating endogenous viral replication
same,inhibition of viral replication,"HIV-1 virus; in vitro (Gandhi et al., 1998; Petit et al., 2002)",nor does it inhibit viral replication; also recorded: did not enable viral replication to be inhibited
same,apoptotic phenotype (condensation and fragmentation of the nuclear chromatin),cells infected by HIV,prevents the apoptotic phenotype
same,"prevention of mitochondrial depolarization, apoptosis or cell death",cells infected by HIV,does not inhibit apoptosis
same,"prevention of mitochondrial depolarization, apoptosis or cell death",cells infected by HIV; listed as zVAD-kmk,does not prevent either mitochondrial depolarization or cell death
"COC(=O)CC(NC(=O)OC(C)(C)C)C(=O)CF [Boc-D-fmk, tert-butyloxycarbonyl-Asp(O-methyl)-fluoromethyl ketone]",inhibition of apoptosis,apoptosis,inhibits apoptosis in a dose-dependent manner
Q-DEVD-OPH,inhibition of viral replication (p24),viral strain HIV-Lai; d5,weak effect
same,inhibition of viral replication (p24),viral strain HIV-Lai; d7,absence of protection
same,"death, fall in the mitochondrial transmembrane potential (% Δφm low)",[2],absence of effect
same,quantity of viral proteins produced,HIV viral proteins,slightly lower
O=c1[nH]cnc2c1ncn2[C@H]1CC[C@@H](CO)O1 [ddl],replication of five primary HIV-1 isolates of R5 tropism,[3],strong inhibition of viral replication
CC(C)(C)NC(=O)[C@@H]1C[C@@H]2CCCC[C@@H]2CN1C[C@@H](O)[C@H](Cc1ccccc1)NC(=O)[C@H](CC(N)=O)NC(=O)c1ccc2ccccc2n1 [Saquinavir],lymphocyte proliferation (CFSE),[4],block the proliferation
same,fall in Δφm,[5],70-80%
CC(C)(C)NC(=O)[C@@H]1CN(Cc2cccnc2)CCN1C[C@@H](O)C[C@@H](Cc1ccccc1)C(=O)N[C@H]1c2ccccc2C[C@H]1O [Indinavir],lymphocyte proliferation (CFSE),"[4]; 50 μM, after 4 and 5 days' stimulation",block the proliferation
same,fall in Δφm,[5],70-80%
